“And” between values parts separate entries of the source, which are not always exact repeats. Equal entries are not always repeated. Inconclusive results and toxic doses are left out. No stated cut-off is given here; in the data, active means T/C of 150% or more; inactive means T/C below 125%.
System: L1210 leukemia ip in BDF1 mice, survival T/C
Assay: NCI In Vivo Anticancer Drug Screen. Data for tumor model L1210 Leukemia (intraperitoneal) in B6D2F1 (BDF1) mice
Details: higher = longer survival
Method in brief: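 Tumor cells were implanted, animals were treated, and survival was followed. The result divides the treated measurement by the vehicle-control measurement.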

[1] = endpoint: mean survival time, dose: 50.0 mg/kg/injection, schedule: Q01DX001 (ip), vehicle: carboxymethylcellulose (CMC)
[2] = endpoint: mean survival time, dose: 100.0 mg/kg/injection, schedule: Q01DX001 (ip), vehicle: carboxymethylcellulose (CMC)
[3] = endpoint: mean survival time, dose: 200.0 mg/kg/injection, schedule: Q01DX001 (ip), vehicle: carboxymethylcellulose (CMC)
[4] = endpoint: mean survival time, dose: 400.0 mg/kg/injection, schedule: Q01DX001 (ip), vehicle: carboxymethylcellulose (CMC)
[5] = endpoint: mean survival time, dose: 100.0 mg/kg/injection, schedule: Q01DX009 (ip), vehicle: Klucel (hydroxypropylcellulose) (HPC)
[6] = endpoint: mean survival time, dose: 200.0 mg/kg/injection, schedule: Q01DX009 (ip), vehicle: Klucel (hydroxypropylcellulose) (HPC)
[7] = endpoint: mean survival time, dose: 400.0 mg/kg/injection, schedule: Q01DX009 (ip), vehicle: Klucel (hydroxypropylcellulose) (HPC)
[8] = endpoint: mean survival time, dose: 400.0 mg/kg/injection, schedule: Q01DX001 (ip), vehicle: saline
[9] = endpoint: mean survival time, dose: 100.0 mg/kg/injection, schedule: Q04DX003 (ip), vehicle: Klucel (hydroxypropylcellulose) (HPC)
[10] = endpoint: mean survival time, dose: 200.0 mg/kg/injection, schedule: Q04DX003 (ip), vehicle: Klucel (hydroxypropylcellulose) (HPC)
[11] = endpoint: mean survival time, dose: 400.0 mg/kg/injection, schedule: Q04DX003 (ip), vehicle: Klucel (hydroxypropylcellulose) (HPC)
[12] = endpoint: mean survival time, dose: 100.0 mg/kg/injection, schedule: Q01DX001 (ip), vehicle: saline with Tween-80
[13] = endpoint: mean survival time, dose: 200.0 mg/kg/injection, schedule: Q01DX001 (ip), vehicle: saline with Tween-80
[14] = endpoint: mean survival time, dose: 400.0 mg/kg/injection, schedule: Q01DX001 (ip), vehicle: saline with Tween-80
[15] = endpoint: mean survival time, dose: 100.0 mg/kg/injection, schedule: Q04DX003 (ip), vehicle: saline
[16] = endpoint: mean survival time, dose: 200.0 mg/kg/injection, schedule: Q04DX003 (ip), vehicle: saline
[17] = endpoint: mean survival time, dose: 400.0 mg/kg/injection, schedule: Q04DX003 (ip), vehicle: saline

Measured: T/C

Cc1cccc(C(=O)O)[n+]1[O-]
inactive: [1] 100 % of control | [2] 95 % of control | [3] 98 % of control | [4] 100 % of control

O=C(Nc1ccc(F)cc1)Nc1ccc(I)cc1
inactive: [5] 100 % of control and 92 % of control | [6] 100 % of control | [7] 96 % of control and 90 % of control

O=C(O)Cc1cccc(C(=O)O)c1
inactive: endpoint: mean survival time, dose: 100.0 mg/kg/injection, schedule: Q01DX001 (ip), vehicle: saline 103 % of control | endpoint: mean survival time, dose: 200.0 mg/kg/injection, schedule: Q01DX001 (ip), vehicle: saline 104 % of control | [8] 115 % of control

CNC1=C(C)C(=O)C2=C(C1=O)C(COC(N)=O)C1(O)C3C(CN21)N3C (stereo unspecified)
inactive: endpoint: mean survival time, dose: 6.6 mg/kg/injection, schedule: Q01DX001 (ip), vehicle: alcohol 100 % of control | endpoint: mean survival time, dose: 15.0 mg/kg/injection, schedule: Q01DX001 (ip), vehicle: acetone 104 % of control

Cc1cnc(SCc2ccccc2Cl)[nH]c1=O
inactive: endpoint: mean survival time, dose: 25.0 mg/kg/injection, schedule: Q01DX Z (ip), vehicle: methylcellulose (MC) 90 % of control | endpoint: mean survival time, dose: 50.0 mg/kg/injection, schedule: Q01DX Z (ip), vehicle: methylcellulose (MC) 100 % of control

Cc1cc(C)c2c(c1)CCc1cc(C)cc(C)c1-2
inactive: [5] 100 % of control | [9] 93 % of control | [6] 93 % of control | [10] 93 % of control | [7] 100 % of control | [11] 93 % of control

CCOc1ccc(N=[N+]([O-])c2ccc(OCC)cc2)cc1
inactive: [12] 103 % of control | [13] 103 % of control | [14] 92 % of control

C#C/C=C/CC1OC(C(Br)CC)CC(Br)C2CC1O2 (stereo unspecified)
inactive: endpoint: mean survival time, dose: 75.0 mg/kg/injection, schedule: Q01DX001 (ip), vehicle: carboxymethylcellulose (CMC) 92 % of control | endpoint: mean survival time, dose: 150.0 mg/kg/injection, schedule: Q01DX001 (ip), vehicle: carboxymethylcellulose (CMC) 96 % of control | endpoint: mean survival time, dose: 300.0 mg/kg/injection, schedule: Q01DX001 (ip), vehicle: carboxymethylcellulose (CMC) 96 % of control

O=C(Nc1cccc(Cl)c1)OCCOCCOC(=O)Nc1cccc(Cl)c1
inactive: [9] 93 % of control and 104 % of control | [10] 101 % of control and 106 % of control | [11] 97 % of control and 98 % of control

O=Cc1ccccc1OCCCC[P+](c1ccccc1)(c1ccccc1)c1ccccc1
inactive: endpoint: mean survival time, dose: 5.0 mg/kg/injection, schedule: Q01DX001 (ip), vehicle: saline 111 % of control | endpoint: mean survival time, dose: 10.0 mg/kg/injection, schedule: Q01DX001 (ip), vehicle: saline 107 % of control | endpoint: mean survival time, dose: 20.0 mg/kg/injection, schedule: Q01DX001 (ip), vehicle: saline 102 % of control

O=C(O)CCSCc1cc(=O)[nH]c(=O)[nH]1
inactive: [15] 96 % of control | [16] 98 % of control | [17] 96 % of control

C/C=C/CS(=O)(=O)Cc1ccccc1
inactive: [12] 103 % of control | [13] 95 % of control | [14] 103 % of control

CCCCCCCCCCCCCCN=C(N)N
inactive: [1] 105 % of control | [2] 97 % of control | [3] 97 % of control | [4] 94 % of control

CCOC(N)=O
inactive: endpoint: mean survival time, dose: 27.0 mg/kg/injection, schedule: Q03HX024 (ip), vehicle: saline 97 % of control | endpoint: mean survival time, dose: 40.0 mg/kg/injection, schedule: Q03HX024 (ip), vehicle: saline 110 % of control | endpoint: mean survival time, dose: 60.0 mg/kg/injection, schedule: Q03HX024 (ip), vehicle: saline 95 % of control | endpoint: mean survival time, dose: 62.6 mg/kg/injection, schedule: Q01DX Z (ip), vehicle: carboxymethylcellulose (CMC) 106 % of control | endpoint: mean survival time, dose: 90.0 mg/kg/injection, schedule: Q03HX024 (ip), vehicle: saline 101 % of control | endpoint: mean survival time, dose: 100.0 mg/kg/injection, schedule: Q01DX009 (ip), vehicle: saline 102 % of control | [15] 95 % of control | endpoint: mean survival time, dose: 120.0 mg/kg/injection, schedule: Q01DX009 (ip), vehicle: saline 98 % of control | endpoint: mean survival time, dose: 125.0 mg/kg/injection, schedule: Q01DX010 (ip), vehicle: saline 110 % of control and 87 % of control | endpoint: mean survival time, dose: 125.0 mg/kg/injection, schedule: Q01DX Z (ip), vehicle: saline 115 % of control | endpoint: mean survival time, dose: 125.25 mg/kg/injection, schedule: Q01DX Z (ip), vehicle: carboxymethylcellulose (CMC) 101 % of control | endpoint: mean survival time, dose: 135.0 mg/kg/injection, schedule: Q03HX024 (ip), vehicle: saline 110 % of control | endpoint: mean survival time, dose: 180.0 mg/kg/injection, schedule: Q01DX009 (ip), vehicle: saline 102 % of control | endpoint: mean survival time, dose: 188.0 mg/kg/injection, schedule: Q01DX Z (ip), vehicle: saline 100 % of control | endpoint: mean survival time, dose: 200.0 mg/kg/injection, schedule: Q01DX009 (ip), vehicle: saline 104 % of control | [16] 101 % of control | endpoint: mean survival time, dose: 250.0 mg/kg/injection, schedule: Q01DX010 (ip), vehicle: saline 111 % of control and 112 % of control | endpoint: mean survival time, dose: 250.0 mg/kg/injection, schedule: Q01DX Z (ip), vehicle: saline 94 % of control | endpoint: mean survival time, dose: 250.5 mg/kg/injection, schedule: Q01DX Z (ip), vehicle: carboxymethylcellulose (CMC) 106 % of control | endpoint: mean survival time, dose: 266.0 mg/kg/injection, schedule: Q01DX001 (ip), vehicle: saline 100 % of control | endpoint: mean survival time, dose: 270.0 mg/kg/injection, schedule: Q01DX009 (ip), vehicle: saline 108 % of control | endpoint: mean survival time, dose: 280.0 mg/kg/injection, schedule: Q02DX010 (ip), vehicle: carboxymethylcellulose (CMC) 109 % of control | endpoint: mean survival time, dose: 375.0 mg/kg/injection, schedule: Q01DX Z (ip), vehicle: saline 110 % of control | [8] 119 % of control | endpoint: mean survival time, dose: 400.0 mg/kg/injection, schedule: Q01DX009 (ip), vehicle: saline 107 % of control and 110 % of control | [17] 100 % of control | endpoint: mean survival time, dose: 500.0 mg/kg/injection, schedule: Q01DX010 (ip), vehicle: saline 123 % of control | endpoint: mean survival time, dose: 500.0 mg/kg/injection, schedule: Q01DX Z (ip), vehicle: saline 105 % of control | endpoint: mean survival time, dose: 501.0 mg/kg/injection, schedule: Q01DX Z (ip), vehicle: carboxymethylcellulose (CMC) 108 % of control | endpoint: mean survival time, dose: 600.0 mg/kg/injection, schedule: Q01DX001 (ip), vehicle: saline 121 % of control | endpoint: mean survival time, dose: 600.0 mg/kg/injection, schedule: Q01DX009 (ip), vehicle: saline 98 % of control | endpoint: mean survival time, dose: 750.0 mg/kg/injection, schedule: Q01DX Z (ip), vehicle: saline 103 % of control | endpoint: mean survival time, dose: 1000.0 mg/kg/injection, schedule: Q01DX010 (ip), vehicle: saline 94 % of control | endpoint: mean survival time, dose: 1000.0 mg/kg/injection, schedule: Q01DX Z (ip), vehicle: saline 105 % of control | endpoint: mean survival time, dose: 1074.0 mg/kg/injection, schedule: Q01DX001 (ip), vehicle: saline 115 % of control | endpoint: median survival time, dose: 125.0 mg/kg/injection, schedule: Q01DX009 (ip), vehicle: saline 100 % of control | endpoint: median survival time, dose: 250.0 mg/kg/injection, schedule: Q01DX009 (ip), vehicle: saline 100 % of control | endpoint: median survival time, dose: 500.0 mg/kg/injection, schedule: Q01DX009 (ip), vehicle: saline 100 % of control and 110 % of control | endpoint: median survival time, dose: 1000.0 mg/kg/injection, schedule: Q01DX009 (ip), vehicle: saline 87 % of control

C=CC[N+](CCO)(CCO)CCCCCCCCCCCCCCCCCC
inactive: endpoint: mean survival time, dose: 12.5 mg/kg/injection, schedule: Q04DX002 (ip), vehicle: saline 102 % of control | endpoint: mean survival time, dose: 25.0 mg/kg/injection, schedule: Q04DX002 (ip), vehicle: saline 97 % of control

[Br][Ce]([Br])[Br]
inactive: [15] 91 % of control | [16] 94 % of control | [17] 94 % of control

— PubChem BioAssay AID248 (DTP/NCI, 2004)
